Assay results from patent US11787816B2, “Chlorin compound, and preparation and use thereof” (Southwest Jiaotong University, priority 2021, dated 2023).

Experiments:
[1] = tested on: human hepatocellular carcinoma huh-7 cells; test: Photosensitizer-mediated PDT, in vitro proliferation (MTT), huh-7; assay type: cell-based
Procedure: Several kinds of tumor cells (human cervical cancer Hela cells, human hepatocellular carcinoma huh-7 cells and murine mammary carcinoma 4T1 cells) cultured in vitro from a variety of tissues were taken as cell models, so as to investigate the photodynamic effects mediated by different doses of CEFN, CEFO, Ce6 and HPPH on the three different tumor cells (n=3). The specific experimental procedures were carried out as follows.
Cells in the logarithmic growth phase were harvested and seeded in a 24-well plate. After growing to a confluence of 70-80%, the cells were randomly divided into a control group (free of drug and light irradiation), a drug group and a photodynamic group. The CEFN, CEFO, Ce6 and HPPH were added respectively in dark, and for each drug, four final concentrations 1, 2, 5, and 10 μg/mL were set with 3 replicates for each group. After the co-incubation, the groups were treated individually. Regarding the photodynamic group, the light irradiation was performed at a wavelength of 660 nm and three different light intensities, i.e., 2, 4 and 8 J/cm^2. After that, each group was digested, and were inoculated into a 96-well plate at 100 μL per well with 4 replicates for each treatment. 24 hours later, the 96-well plate was subjected to MTT assay as follows. Each well was added with 20 μL of MTT (3-4,5-dimethylthiazol-2,5-diphenyltetrazolium bromide) solution in the dark and incubated for 4 hours. The supernatant was discarded, and the residue was dissolved with 150 μL of dimethyl sulfoxide for 15 min. After that, the 96-well plate was measured by a microplate reader for the absorbance (OD value). The relative cell viability was calculated as follows: relative cell viability=OD value of experimental group/OD value of control group*100%.

[2] = tested on: murine mammary carcinoma 4T1 cells; test: Antitumor activity as photosensitizers on tumor-bearing mice (two PDT treatments); assay type: in vivo; settings: for Inhibitory rate (average ± SD, %) / Tumor weight (average ± SD, g): 0.25 mg/kg tail vein, two PDT treatments one week apart, 660 nm, 150 Joule/cm^2, 14 days after treatment; for Body weight At the beginning / Body weight At the end: 0.25 mg/kg, two PDT treatments, mice, in g (unit assumed)
Procedure: The murine mammary carcinoma cells (4T1 line) were subjected to adherent culture. After growing to a confluence of 70%-80%, the cells in the culture flask were routinely digested, centrifuged and counted, and then resuspended with 0.85% normal saline to a density of 1×10^7 cells/mL. The cell suspension was injected into the left lateral middle axillary subcutaneous part of […] Bal b/c healthy mice (female, aged 6-8 weeks) at 0.1 mL/mouse. When the tumor diameter, which was observed every other day, reached 0.6-0.8 cm, the mice with well-growing tumors and no ulcers on the epidermis were selected for grouped treatment.
(2) Mice with similar body weight and uniform tumor size are selected and randomly divided into 4 groups with 6 mice for each group. After inoculation of 4T1 cells and the tumor volume grows to 50˜80 mm^3, the mice were subjected to a first drug administration from the tail vein by group.
6 h after the drug administration, the mice were fixed to expose the tumor growth site. As a first PDT treatment, light irradiation was performed for 8 min, using PDT-660 photodynamic therapy equipment at the laser wavelength of 660 nm and the light dose of 150 Joule/cm^2. One week later, the second PDT treatment (the dosage and lighting conditions were the same as those of the first PDT treatment) was performed. The mice were sacrificed 14 days after the treatment. The tumor was removed, weighed and recorded.

Question: “3-hexoxymethyl-3-devinyl-chlorin e4 disodium salt [CEFO]” was tested. Which “cell viability (%)” value ([1]; 1 μg/mL, 660 nm, 2 J/cm^2) did it give?
Answer: 63 ± 3%

Question: And the “cell viability (%)” value ([1]; 1 μg/mL, 660 nm, 4 J/cm^2)?
Answer: 60 ± 3%

Question: And the “cell viability (%)” value ([1]; 1 μg/mL, 660 nm, 8 J/cm^2)?
Answer: 53 ± 3%

Question: And the “cell viability (%)” value ([1]; 1 μg/mL, no light)?
Answer: 99 ± 2%

Question: What about the “cell viability (%)” value ([1]; 2 μg/mL, 660 nm, 2 J/cm^2) of the same substance?
Answer: 58 ± 1%

Question: And the “cell viability (%)” value ([1]; 2 μg/mL, 660 nm, 4 J/cm^2)?
Answer: 53 ± 3%

Question: And the “cell viability (%)” value ([1]; 2 μg/mL, 660 nm, 8 J/cm^2)?
Answer: 30 ± 2%

Question: And the “cell viability (%)” value ([1]; 2 μg/mL, no light)?
Answer: 99 ± 2%

Question: What about the “cell viability (%)” value ([1]; 5 μg/mL, 660 nm, 2 J/cm^2) of the same substance?
Answer: 39 ± 2%

Question: What about the “cell viability (%)” value ([1]; 5 μg/mL, 660 nm, 4 J/cm^2) of the same substance?
Answer: 24 ± 2%

Question: And the “cell viability (%)” value ([1]; 5 μg/mL, 660 nm, 8 J/cm^2)?
Answer: 27 ± 1%

Question: What about the “cell viability (%)” value ([1]; 5 μg/mL, no light) of the same substance?
Answer: 97 ± 3%

Question: And the “cell viability (%)” value ([1]; 10 μg/mL, 660 nm, 2 J/cm^2)?
Answer: 25 ± 2%

Question: And the “cell viability (%)” value ([1]; 10 μg/mL, 660 nm, 4 J/cm^2)?
Answer: 9 ± 1%

Question: And the “cell viability (%)” value ([1]; 10 μg/mL, 660 nm, 8 J/cm^2)?
Answer: 7 ± 1%

Question: And the “cell viability (%)” value ([1]; 10 μg/mL, no light)?
Answer: 93 ± 4%

Question: What about the “Inhibitory rate (average ± SD, %)” value [2] of the same substance?
Answer: 96.9 ± 3.1%

Question: And the “Tumor weight (average ± SD, g)” value [2]?
Answer: 0.029 ± 0.028 g

Question: What about the “Body weight At the beginning” value [2] of the same substance?
Answer: 20.2 ± 0.2

Question: What about the “Body weight At the end” value [2] of the same substance?
Answer: 22.2 ± 0.5

Question: “3-n-hexylaminomethyl-3-devinyl-chlorin e4 disodium salt [CEFN]” was tested. Which “cell viability (%)” value ([1]; 1 μg/mL, 660 nm, 2 J/cm^2) did it give?
Answer: 101 ± 3%

Question: And the “cell viability (%)” value ([1]; 1 μg/mL, 660 nm, 4 J/cm^2)?
Answer: 78 ± 3%

Question: And the “cell viability (%)” value ([1]; 1 μg/mL, 660 nm, 8 J/cm^2)?
Answer: 90 ± 3%

Question: What about the “cell viability (%)” value ([1]; 1 μg/mL, no light) of the same substance?
Answer: 97 ± 2%

Question: What about the “cell viability (%)” value ([1]; 2 μg/mL, 660 nm, 2 J/cm^2) of the same substance?
Answer: 87 ± 2%

Question: And the “cell viability (%)” value ([1]; 2 μg/mL, 660 nm, 4 J/cm^2)?
Answer: 68 ± 2%

Question: And the “cell viability (%)” value ([1]; 2 μg/mL, 660 nm, 8 J/cm^2)?
Answer: 64 ± 3%

Question: What about the “cell viability (%)” value ([1]; 2 μg/mL, no light) of the same substance?
Answer: 95 ± 3%

Question: What about the “cell viability (%)” value ([1]; 5 μg/mL, 660 nm, 2 J/cm^2) of the same substance?
Answer: 61 ± 2%

Question: And the “cell viability (%)” value ([1]; 5 μg/mL, 660 nm, 4 J/cm^2)?
Answer: 55 ± 3%

Question: What about the “cell viability (%)” value ([1]; 5 μg/mL, 660 nm, 8 J/cm^2) of the same substance?
Answer: 47 ± 2%

Question: And the “cell viability (%)” value ([1]; 5 μg/mL, no light)?
Answer: 93 ± 3%

Question: And the “cell viability (%)” value ([1]; 10 μg/mL, 660 nm, 2 J/cm^2)?
Answer: 50 ± 2%

Question: What about the “cell viability (%)” value ([1]; 10 μg/mL, 660 nm, 4 J/cm^2) of the same substance?
Answer: 12 ± 3%

Question: What about the “cell viability (%)” value ([1]; 10 μg/mL, 660 nm, 8 J/cm^2) of the same substance?
Answer: 9 ± 2%

Question: What about the “cell viability (%)” value ([1]; 10 μg/mL, no light) of the same substance?
Answer: 93 ± 1%

Question: What about the “Inhibitory rate (average ± SD, %)” value [2] of the same substance?
Answer: 86.1 ± 3.5%

Question: What about the “Tumor weight (average ± SD, g)” value [2] of the same substance?
Answer: 0.132 ± 0.032 g

Question: What about the “Body weight At the beginning” value [2] of the same substance?
Answer: 20.3 ± 0.3

Question: And the “Body weight At the end” value [2]?
Answer: 22.4 ± 0.4
